From US7652022B2, “Diaryl urea derivatives useful for the treatment of protein kinase dependent diseases” (Novartis AG, priority 2002, dated 2010)

What was measured:
[1] = target: T1, c-Abl kinase (His-tagged kinase domain of c-Abl) (Homo sapiens, UniProt P00519); assay: c-Abl protein-tyrosine kinase in vitro enzyme filter binding assay; format: biochemical; conditions: % inhibition at 10 μM
T1 construct: The His-tagged kinase domain of c-Abl is cloned and expressed in the baculovirus/Sf9 system; His tag; made in house; host or cells: Sf9 insect cells (baculovirus)
T1 sequence (P00519 242-493 limits assumed): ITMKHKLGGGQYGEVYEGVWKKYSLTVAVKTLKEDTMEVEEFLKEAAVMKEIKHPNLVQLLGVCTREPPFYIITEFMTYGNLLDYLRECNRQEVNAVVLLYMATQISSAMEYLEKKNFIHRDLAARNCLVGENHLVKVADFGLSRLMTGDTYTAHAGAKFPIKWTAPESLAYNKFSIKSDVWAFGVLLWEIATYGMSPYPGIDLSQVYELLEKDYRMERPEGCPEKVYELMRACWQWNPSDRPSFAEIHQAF
Method: An in vitro enzyme assay is performed in 96-well plates as a filter binding assay as described by Geissler et al. in Cancer Res. 1992; 52:4492-4498, with the following modifications. The His-tagged kinase domain of c-Abl is cloned and expressed in the baculovirus/Sf9 system as described by Bhat et al. in J. Biol. Chem. 1997; 272:16170-16175. A protein of 37 kD (c-Abl kinase) is purified by a two-step procedure over a Cobalt metal chelate column followed by an anion exchange column with a yield of 1-2 mg/L of Sf9 cells (Bhat et al., reference cited). The purity of the c-Abl kinase is >90% as judged by SDS-PAGE after Coomassie blue staining. The assay contains (total volume of 30 μL): c-Abl kinase (50 ng), 20 mM Tris·HCl, pH 7.5, 10 mM MgCl2, 10 μM Na3VO4, 1 mM DTT and 0.06 μCi/assay [γ^33 P]-ATP (5 μM ATP) using 30 μg/mL poly-Ala,Glu,Lys,Tyr-6:2:5:1 (Poly-AEKY, Sigma P1152) in the presence of 1% DMSO. Reactions are terminated by adding 10 μL of 250 mM EDTA and 30 μL of the reaction mixture is transferred onto Immobilon-PVDF membrane (Millipore, Bedford, Mass., USA) previously soaked for 5 min with methanol, rinsed with water, then soaked for 5 min with 0.5% H3PO4 and mounted on vacuum manifold with disconnected vacuum source. After spotting all samples, vacuum is connected and each well rinsed with 200 μL 0.5% H3PO4. Membranes are removed and washed on a shaker with 0.5% H3PO4 (4 times) and once with ethanol. Membranes are counted after drying at ambient temperature, mounting in Packard TopCount 96-well frame, and addition of 10 μL/well of Microscint™ (Packard).
Enzymatic (c-Abl, KDR, Flt3) data are given on Table 17 (% inhibition at 10 μM). (Measurements are made as described above in the general description).

[2] = target: T2, human VEGF-R2 receptor (KDR) (Homo sapiens, UniProt P35968); assay: Inhibition of VEGF-induced VEGF-R2 (KDR) autophosphorylation in transfected CHO cells, sandwich ELISA; format: cell-based; conditions: % inhibition at 10 μM
T2 construct: expressed in transfected cells
T2 sequence (P35968 20-1356): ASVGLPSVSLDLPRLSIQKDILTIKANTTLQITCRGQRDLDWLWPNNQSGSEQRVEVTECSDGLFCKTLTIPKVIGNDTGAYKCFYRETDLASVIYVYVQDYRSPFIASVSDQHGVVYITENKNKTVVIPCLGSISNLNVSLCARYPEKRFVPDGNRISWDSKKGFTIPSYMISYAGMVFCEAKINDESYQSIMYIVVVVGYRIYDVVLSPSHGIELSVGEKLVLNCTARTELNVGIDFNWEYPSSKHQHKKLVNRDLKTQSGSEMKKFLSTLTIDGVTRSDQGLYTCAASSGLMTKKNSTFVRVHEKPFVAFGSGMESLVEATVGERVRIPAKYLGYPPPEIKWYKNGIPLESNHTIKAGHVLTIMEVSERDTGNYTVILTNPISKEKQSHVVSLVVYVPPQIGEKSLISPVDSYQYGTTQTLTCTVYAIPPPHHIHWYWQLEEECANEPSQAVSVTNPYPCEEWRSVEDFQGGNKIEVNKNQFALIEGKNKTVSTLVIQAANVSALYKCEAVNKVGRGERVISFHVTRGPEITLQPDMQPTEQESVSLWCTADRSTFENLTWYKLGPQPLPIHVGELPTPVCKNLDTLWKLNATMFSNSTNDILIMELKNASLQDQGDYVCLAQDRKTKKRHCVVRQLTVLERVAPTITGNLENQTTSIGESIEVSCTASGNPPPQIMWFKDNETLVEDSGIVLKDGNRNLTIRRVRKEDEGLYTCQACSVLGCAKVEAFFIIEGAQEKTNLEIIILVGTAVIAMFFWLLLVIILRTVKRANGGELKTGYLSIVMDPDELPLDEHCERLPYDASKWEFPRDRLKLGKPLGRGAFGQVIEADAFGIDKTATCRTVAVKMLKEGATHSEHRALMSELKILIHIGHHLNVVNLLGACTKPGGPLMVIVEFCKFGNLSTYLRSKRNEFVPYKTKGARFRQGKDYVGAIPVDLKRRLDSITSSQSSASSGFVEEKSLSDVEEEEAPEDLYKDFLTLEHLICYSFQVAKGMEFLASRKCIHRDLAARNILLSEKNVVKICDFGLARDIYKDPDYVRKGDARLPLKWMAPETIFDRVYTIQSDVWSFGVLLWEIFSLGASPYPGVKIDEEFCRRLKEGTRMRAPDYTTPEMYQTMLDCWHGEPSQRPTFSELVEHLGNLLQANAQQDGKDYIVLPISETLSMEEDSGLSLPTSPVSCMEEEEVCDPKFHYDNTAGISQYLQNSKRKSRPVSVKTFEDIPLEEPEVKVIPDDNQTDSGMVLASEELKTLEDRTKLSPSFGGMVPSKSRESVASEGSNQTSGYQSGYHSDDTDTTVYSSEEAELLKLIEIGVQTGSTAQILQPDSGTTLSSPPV
Method: The inhibition of VEGF-induced receptor autophosphorylation can be confirmed with a further in vitro experiments in cells such as transfected CHO cells, which permanently express human VEGF-R2 receptor (KDR), are seeded in complete culture medium (with 10% fetal calf serum=FCS) in 6-well cell-culture plates and incubated at 37° C. under 5% CO2 until they show about 80% confluency. The compounds to be tested are then diluted in culture medium (without FCS, with 0.1% bovine serum albumin) and added to the cells. (Controls comprise medium without test compounds). After two hours of incubation at 37° C., recombinant VEGF is added; the final VEGF concentration is 20 ng/ml. After a further five minutes incubation at 37° C., the cells are washed twice with ice-cold PBS (phosphate-buffered saline) and immediately lysed in 100 μl lysis buffer per well. The lysates are then centrifuged to remove the cell nuclei, and the protein concentrations of the supernatants are determined using a commercial protein assay (BIORAD). The lysates can then either be immediately used or, if necessary, stored at −20° C.
The plates are then washed and the remaining free protein-binding sites are saturated with 3% TopBlock® (Juro, Cat. # TB232010) in phosphate buffered saline with Tween 20® (polyoxyethylen(20)sorbitane monolaurate, ICI/Uniquema) (PBST). The cell lysates (20 μg protein per well) are then incubated in these plates overnight at 4° C. together with an antiphosphotyrosine antibody coupled with alkaline phosphatase (PY20:AP from Zymed). […] The luminescence is measured in a Packard Top Count Microplate Scintillation Counter. The difference between the signal of the positive control (stimulated with VEGF) and that of the negative control (not stimulated with VEGF) corresponds to VEGF-induced VEGF-R2 phosphorylation (=100%). The activity of the tested substances is calculated as percent inhibition of VEGF-induced VEGF-R2 phosphorylation, wherein the concentration of substance that induces half the maximum inhibition is defined as the IC50 (inhibitory dose for 50% inhibition). […]

SMILES | c-Abl (% at 10 μM) [1] | melting point | KDR trans (% at 10 μM) [2]
CCc1ccc(NC(=O)Nc2ccc(Oc3ccncc3)cc2)cc1 [Example 1, N-(4-pyridin-4-yl-oxy-phenyl)-N′-(4-ethyl-phenyl)-urea] | 62% | 166.5 to 168 °C | 100%
O=C(Nc1ccc(Oc2ccncc2)cc1)Nc1cccc(C(F)(F)F)c1 [Example 2] | 84% |  | 99%
CCCc1ccc(NC(=O)Nc2ccc(Oc3ccncc3)cc2)cc1 [Example 3] | 58% |  | 25%
O=C(Nc1ccc(Oc2cc(Nc3ccc(O)cc3)ncn2)cc1)Nc1cccc(C(F)(F)F)c1 [Example 22, N-(4-(4-(4-hydroxyphenylamino)-pyrimidin-6-yl)-oxyphenyl)-N′-(3-trifluoromethylphenyl)-urea] |  | 142 °C (dec.) | 
COc1cc(NC(=O)Nc2ccc(Oc3ccncc3)cc2)cc(C(F)(F)F)c1 [Example 37, 1-(3-Methoxy-5-trifluoromethyl-phenyl)-3-[4-(pyridin-4-yloxy)-phenyl]-urea] |  | 162.5 to 164.5 °C | 
CCN(CC)c1ccc(NC(=O)Nc2ccc(Oc3ccncc3)cc2)cc1C(F)(F)F [Example 39] |  | 60 °C (dec.) | 
Cc1ccc(NC(=O)Nc2ccc(Oc3ccncc3)cc2)cc1C(F)(F)F [Example 43, 1-(4-Methyl-3-trifluoromethyl-phenyl)-3-[4-(pyridin-4-yloxy)-phenyl]-urea] |  | 149 °C (dec.) | 
CNc1cc(Oc2ccc(NC(=O)Nc3ccc(C)c(C(F)(F)F)c3)cc2)ncn1 [Example 67] |  | 202 to 203 °C (dec.) | 
Cc1ccc(NC(=O)Nc2ccc(Oc3cc(Cl)ncn3)cc2)cc1C(F)(F)F [Example 76, 1-[4-(6-Chloro-pyrimidin-4-yloxy)-phenyl]-3-(4-methyl-3-trifluoromethyl-phenyl)-urea] |  | 183 to 184.5 °C | 
Cc1ccc(NC(=O)Nc2ccc(Oc3cc(Cl)ncn3)cc2)cc1 [Example 97, 1-[4-(6-Chloro-pyrimidin-4-yloxy)-phenyl]-3-p-tolyl-urea] |  | 217 to 219 °C | 
CCc1cc(Oc2ccc(NC(=O)Nc3ccc(C)cc3)cc2)ncn1 [Example 99, 1-[4-(6-Ethyl-pyrimidin-4-yloxy)phenyl]-3-p-tolyl-urea] |  | 160 to 162 °C | 
CCN1CCN(Cc2cc(NC(=O)Nc3ccc(Oc4cc(Cl)ncn4)cc3)cc(C(F)(F)F)c2)CC1 [Example 134, N-(4-(6-Chloropyrimidin-4-yl-oxy)-phenyl)-N′-{5-trifluoromethyl-3-[(4-ethylpiperazin-1-ylmethyl)]-phenyl}-urea] |  | 168 to 169 °C | 
CN(C)Cc1cc(NC(=O)Nc2ccc(Oc3cc(Cl)ncn3)cc2)cc(C(F)(F)F)c1 [Example 135, N-(4-(6-Chloropyrimidin-4-yl-oxy)-phenyl)-N′-[5-trifluoromethyl-3-(dimethylamino-methyl)-phenyl]-urea] |  | 154 °C | 
O=C(Nc1cccc(C(F)(F)F)c1)N1CCc2cc(Oc3cc(Cl)ncn3)ccc21 [Example 163, 5-(6-Chloro-pyrimidin-4-yloxy)-2,3-dihydro-indole-1-carboxylic acid (3-trifluoromethyl-phenyl)-amide] |  | 181 °C | 
